Source: PMC8156206, “Novel N,N′-Disubstituted Selenoureas as Potential Antioxidant and Cytotoxic Agents” (Antioxidants, 2021)

Columns and labels:
[1] = system: HTB-54 cells (lung adenocarcinoma); assay: MTT cell viability assay, HTB-54; type: cell-based, human; details: Homo sapiens, 48 h, MTT, read-out: cell viability, percentage of live cells; for viability at 10 µM: HTB-54, 10 µM; for viability at 50 µM: HTB-54, 50 µM
Procedure: (§1) Cell lines were purchased from the American Type Culture Collection (ATCC). MCF-7, HTB-54, BEAS-2B and 184B5 cell lines were grown in RPMI 1640 medium (Gibco) supplemented with 10% fetal bovine serum (FBS; Gibco), 100 units/mL penicillin, and […] streptomycin (Gibco). HT-29 and HCT-116 cell lines was cultured in McCoy’s 5A (Gibco), 10% FBS, 100 units/mL penicillin, and 100 μg/mL streptomycin. Cells were maintained at 37 °C and 5% CO2. Culture medium was replaced every three days.
(§2) A cell viability assay of each compound was carried out using an MTT assay. Each selenourea was dissolved in dimethyl sulfoxide (DMSO) at a concentration of 0.01 M. Serial dilutions were prepared with non-supplemented culture medium. Cytotoxic activity of each selenourea was determined at two different concentrations (10 and 50 µM) in MCF-7, HTB-54, and HT-29 cells. In addition, selected compounds were tested at seven different concentrations (0.1, 1, 5, 10, 25, 50, 100 µM) on MCF-7, HT-29, HCT-116, HTB-54, 184B5, and BEAS-2B cells. The number of passages before defrosting the cells was 3, and they were kept under culture up to a maximum of 15.
(§3) Briefly, 1 × 10^4 cells/well were grown in 96-well plates for 24 h. Then, these cells were incubated with either DMSO (negative control) at 5 µM or a different concentration of each tested selenourea for 48 h. A volume of 20 µL of MTT was added 150 min before the termination point to measure cellular viability. After this time, culture medium was removed. The resultant formazan crystals were dissolved in 50 µL of DMSO, and absorbance was measured at 570 nm. Results are expressed as IC50, the half maximal inhibitory concentration. This value was calculated using GraphPad Prism 7 software by nonlinear curve fitting. Furthermore, the selectivity index (SI) was calculated as the ratio of the IC50 values determined for the non-malignant and the tumoral cells (IC50 (184B5)/IC50 (MCF-7) or (IC50 (BEAS-2B)/IC50 (HTB-54). Data were obtained from at least three independent experiments performed in triplicates.
(§4) The cytotoxic effects of synthesized compounds were evaluated against three human cancer cell lines: breast adenocarcinoma (MCF-7), lung adenocarcinoma (HTB-54), and colon carcinoma (HT-29), using a 3-[4,5-dimethylthiazol-2-yl]-2,5-diphenyltetrazolium bromide (MTT) assay. Firstly, the compounds were screened at two doses (50 and 10 µM) and after 48 h of treatment. The results are summarized in Figure 4 and are presented as percentages of growth inhibition related to control.

[2] = system: HT-29 cells (colon carcinoma); assay: MTT cell viability assay, HT-29; type: cell-based; details: Homo sapiens, 48 h, MTT, read-out: cell viability, percentage of live cells; for viability at 10 µM: HT-29, 10 µM; for viability at 50 µM: HT-29, 50 µM
Procedure: as §1, §2, §3, §4

[3] = system: MCF-7 cells (breast adenocarcinoma); assay: MTT cell viability assay, MCF-7; type: cell-based, human; details: Homo sapiens, MCF7, 48 h, MTT, read-out: cell viability, percentage of live cells; for viability at 10 µM: MCF-7, 10 µM; for viability at 50 µM: MCF-7, 50 µM
Procedure: as §1, §2, §3, §4

[4] = DPPH radical scavenging assay; details: for DPPH radical scavenging capacity compared with ascorbic acid: at lower concentrations; for DPPH radical scavenging kinetics: 0.03 mg/mL, time-point 0 min
Procedure: (§5) From all the methods available for the prediction of the antioxidant properties, DPPH^● and ABTS^●+ assays were chosen according to their simplicity, accessibility, and effectiveness for a fast prediction of radical scavenging activities in vitro. The radical scavenging capacity of the novel selenoureas was determined by DPPH^● and ABTS^●^+ assays. Measurements were recorded on a BioTeck PowerWave XS spectrophotometer (BioTeck Instruments, Winooski (VT), USA) and the data were collected using KCJunior software (BioTeck Instruments, Winooski (VT), USA).
A DPPH assay was performed, as described by Svinyarov. Stock solutions of 1 mg/mL were initially prepared for each selenourea in methanol and this solution was used for the preparation of the different concentrations employed in the assay. Ascorbic acid (Asc) was used as positive control due to the literature reports that this derivative is a potent antioxidant and radical scavenger. A volume of 100 µL from a previously prepared stock solution (preserved in dark and daily prepared) of DPPH (100 µM) in methanol were added to 100 µL of the methanolic selenoureas solutions prepared previously, and the antioxidant activity these compounds was assessed by its ability to decolorize DPPH● radical (purple color in methanol) to DPPHH (colorless). Thus, radical scavenging activity was estimated by the decrease in the absorbance at 517 nm. Determinations were recorded at different time-points. All the measurements were carried out in triplicate. Results are expressed as the percentage of the radicals scavenged, calculated using the following formula:(1) % DPPH radical scavenging=Acontrol − Asample/Acontrol × 100 where Acontrol refers to the absorbance of the negative control and Asample refers to the absorbance of the tested compounds. Results are expressed as percentage of DPPH radical scavenging ± SD.
In order to determine the radical scavenging of these newly synthesized selenourea derivatives, the DPPH assay was firstly employed. Measurements were performed at four different concentrations ranging from 0.0003 to 0.03 mg/mL, and collected at time-points between 0 min and 120 min (Figures S81–S100). Results are presented as the percentage of inhibition for DPPH radical scavenging activity.

[5] = ABTS radical scavenging assay; details: for ABTS radical scavenging kinetics: 0.03 mg/mL
Procedure: as §5
As well as DPPH, ABTS radical scavenging assay is a colorimetric method. ABTS (2,2′-azino-bis(3-ethylbenzothiazoline-6-sulfonic acid) was dissolved in deionized water at 1 mg/mL and oxidized to ABTS^●+ with potassium persulfate (2.45 mM final concentration). This oxidation process is not instantaneous, and the reaction mixture was kept in the dark overnight at room temperature. After ABTS^●+ radical was generated, the ABTS^●+ solution was diluted with 50% ethanol until an absorbance of 0.70 ± 0.02 at 734 nm for measurements was achieved. Stock solution of 1 mg/mL in absolute ethanol was prepared for each selenourea, and different dilutions were prepared to reach the final concentration, when 20 µL of this solution were added to 180 µL of the diluted ABTS^●+. The absorbance at 734 nm was recorded using 50% ethanol as blank. Trolox and Asc were used as positive controls. All determinations were carried out in triplicate. Same time intervals as in the DPPH assay were also measured. The ability to scavenge ABTS^●+ was calculated using the following formula:(2) % ABTS radical scavenging=Acontrol − Asample/Acontrol × 100 where Acontrol refers to the absorbance of the negative control and Asample refers to the absorbance of the tested compounds. The results are expressed as percentage of ABTS radical scavenging ± SD.
In order to confirm the antioxidant activity of the selenoureas, we performed an additional ABTS (2,2′-azino-bis(3-ethylbenzothiazoline-6-sulfonic acid) radical scavenging assay. Following the results obtained in the DPPH assay, this experiment was performed at 0.03 and 0.003 mg/mL. Measurements were recorded after 0′, 6′ and 60′ of incubation with ABTS. For comparison purposes, Trolox and ascorbic acid were used as references. The remarkable results are summarized in Figure 3.

Row | Compound | viability at 10 µM [1] [%] | viability at 50 µM [1] [%] | viability at 10 µM [2] [%] | viability at 50 µM [2] [%] | viability at 10 µM [3] [%] | viability at 50 µM [3] [%] | melting point [°C] | DPPH radical scavenging capacity compared with ascorbic acid [4] | ABTS radical scavenging activity ([5]; 0.003 mg/mL, 60 min) | DPPH radical scavenging kinetics [4] | ABTS radical scavenging activity compared with Trolox ([5]; 0.003 mg/mL, 60 min) | ABTS radical scavenging kinetics [5]
1 | [Se]=C(NCc1ccco1)Nc1ccccc1 [Compound 1a] | 63.5 | 20.5 | 70.4 | 44.6 | 75.7 | 32.3 | 109 | – | – | – | – | –
2 | Cc1ccc(NC(=[Se])NCc2ccco2)cc1 [Compound 1b] | 52.1 | 21.6 | 66.2 | 43.1 | 64.8 | 12.4 | – | – | – | – | – | –
3 | COc1ccc(NC(=[Se])NCc2ccco2)cc1 [Compound 1c] | 55.7 | 28.8 | 70.5 | 39.1 | 64 | 21.5 | 128 | – | – | – | – | –
4 | Cc1ccc(NC(=[Se])NCc2nccs2)cc1 [Compound 2b] | 53.1 | 18.1 | 88.3 | 49.6 | 65.5 | 16.8 | 154 | greater radical scavenging capacity than ascorbic acid | – | – | – | –
5 | COc1ccc(NC(=[Se])NCc2nccs2)cc1 [Compound 2c] | 58.5 | 30.3 | 88.9 | 53.1 | 60 | 33.1 | 150 | greater radical scavenging capacity than ascorbic acid | above 90% | – | – | –
6 | N#Cc1ccc(NC(=[Se])NCc2nccs2)cc1 [Compound 2e] | 66.6 | 40.1 | 57.9 | 59.2 | 62.3 | 43.6 | 152 | – | above 90% | reaching the maximum activity at time-point 0′ | – | –
7 | Cc1ccc(NC(=[Se])Nc2ccc3oc(=O)ccc3c2)cc1 [Compound 3b] | 62.9 | 27.3 | 57.1 | 46.1 | 73.8 | 29.2 | 145 | – | – | reaching the maximum activity at time-point 0′ | – | –
8 | COc1ccc(NC(=[Se])Nc2ccc3oc(=O)ccc3c2)cc1 [Compound 3c] | 61.6 | 9.7 | 58.2 | 34.3 | 73.9 | 17.4 | 159 | – | – | reaching the maximum activity at time-point 0′ | – | –
9 | O=c1ccc2cc(NC(=[Se])Nc3ccc(Cl)cc3)ccc2o1 [Compound 3d] | 70.1 | 14 | 59.1 | 35.7 | 69.7 | 28.6 | 156 | – | – | reaching the maximum activity at time-point 0′ | – | –
10 | CCCCNC(=[Se])Nc1ccc(Cl)cc1 [Compound 4d] | 58.1 | 38 | 64.4 | 46 | 50.3 | 34.1 | 116 | – | – | – | – | –
11 | CCCCNC(=[Se])Nc1ccc(C#N)cc1 [Compound 4e] | 74.6 | 29.7 | 60.7 | 46.3 | 70.7 | 39 | 145 | – | – | reaching the maximum activity at time-point 0′ | – | –
12 | CCCCCCNC(=[Se])Nc1ccc(OC)cc1 [Compound 5c] | 70.4 | 10.7 | 62.6 | 31.1 | 60.1 | 8.1 | 97 | – | – | – | – | –
13 | CCCCCCNC(=[Se])Nc1ccc(Cl)cc1 [Compound 5d] | 81.4 | 57.2 | 69.1 | 42.5 | 81.3 | 17.3 | 110 | – | – | – | significant lower radical scavenging activity than Trolox | –
14 | CCCCCCNC(=[Se])Nc1ccc(C#N)cc1 [Compound 5e, N-hexyl-N´-(4-cyanophenyl)selenourea] | 80.2 | 23.3 | 59.1 | 40.4 | 68.5 | 14.7 | 125 | – | – | reaching the maximum activity at time-point 0′ | – | –
15 | Cc1c(C)c2c(c(C)c1O)CCC(C)(C(=O)O)O2 (centres unmarked) [Trolox, reference compound] | – | – | – | – | – | – | – | – | – | – | – | reached the maximal ABTS radical scavenging activity quickly
16 | O=C1O[C@H]([C@@H](O)CO)C(O)=C1O [ascorbic acid, reference compound] | – | – | – | – | – | – | – | – | – | – | – | reached the maximal ABTS radical scavenging activity quickly
